Consider 13 compounds from patent US7754709B2 (Solvay Pharmaceuticals BV, priority 2003, dated 2010).

Each structure is given as a SMILES string. Several values for one entry are separate records, joined by “and”; a condition that tells them apart may be missing. Equal entries are not always repeated.

Usually inhibition stands for the relative decrease from the control value, in per cent.

What all share (assay type): cell-based
Test [1] concerns the target T1, 17β-hydroxysteroid dehydrogenase type 1 (Homo sapiens, UniProt P14061).
T1 construct: expressed in transfected cells; host or cells: MCF-7
T1 sequence (P14061 1-328): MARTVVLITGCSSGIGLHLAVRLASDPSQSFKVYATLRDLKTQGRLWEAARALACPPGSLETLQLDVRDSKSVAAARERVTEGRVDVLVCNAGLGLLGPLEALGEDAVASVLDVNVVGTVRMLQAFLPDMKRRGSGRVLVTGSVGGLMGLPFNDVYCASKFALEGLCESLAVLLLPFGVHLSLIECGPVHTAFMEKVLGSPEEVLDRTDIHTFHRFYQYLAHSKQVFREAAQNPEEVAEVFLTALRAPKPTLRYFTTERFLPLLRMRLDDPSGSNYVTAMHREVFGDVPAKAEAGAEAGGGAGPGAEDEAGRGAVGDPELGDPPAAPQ
In words: Inhibition of 17β-HSD type 1 in MCF-7 cells stably expressing the isoenzyme (HPLC, tritium labeled estrone). To be noted: 2 nM estrone; for inhibition at 1 µM: MCF7, 1 μM compound; for inhibition at 1 µM / inhibition at 10 µM: read-out: % Inhibition of the 17β-HSD enzyme type 1 (HSD1); for inhibition at 10 µM: MCF7, 10 μM compound. The source says:
(§1) Biological Testing Materials and Methods 1. Inhibition of the 17β-hydroxysteroid dehydrogenase type 1, type 2 and type 3 enzyme
(§2) The compounds were screened in respect of 17β-HSD enzyme activity in vitro on established M CF-7 cell lines, each stably expressing one of the respective 17β-HSD isoenzymes. The interconversion of substrate by each isoenzyme and the 17β-HSD inhibiting activity of chemical compounds in these cell lines were detected by HPLC system.
(§3) Varying amounts of the test compounds were incubated in the growth medium of the 17β-HSD expressing cells together tritium labeled substrate (2 nM estrone for 17β-HSD type 1; 2 nM estradiol for 17β-HSD type 2; and 2 nM androstenedione for 17β-HSD type 3). The medium samples were removed after exact incubation time and the reaction is stopped by trichloroacetic acid (TCA). The samples were analyzed by HPLC-coupled flow scintillation analysis.
(§4) For each enzyme type, the HSD-inhibiting activity of an individual test compound was calculated by comparing the conversion of a control sample without any test compound (referred to as “Negative Control”) to the (reduced) conversion of the test sample containing the particular compound to be tested (referred to as “Test Sample”).
(§5) Two concentrations of each compound were used. The number of the compound refers to the numbers indicated in the Experimental Section.

Test [2] has as its target T2, 17β-hydroxysteroid dehydrogenase type 2 (Homo sapiens, UniProt P37059).
T2 construct: expressed in transfected cells; host or cells: MCF-7
T2 sequence (P37059 1-387): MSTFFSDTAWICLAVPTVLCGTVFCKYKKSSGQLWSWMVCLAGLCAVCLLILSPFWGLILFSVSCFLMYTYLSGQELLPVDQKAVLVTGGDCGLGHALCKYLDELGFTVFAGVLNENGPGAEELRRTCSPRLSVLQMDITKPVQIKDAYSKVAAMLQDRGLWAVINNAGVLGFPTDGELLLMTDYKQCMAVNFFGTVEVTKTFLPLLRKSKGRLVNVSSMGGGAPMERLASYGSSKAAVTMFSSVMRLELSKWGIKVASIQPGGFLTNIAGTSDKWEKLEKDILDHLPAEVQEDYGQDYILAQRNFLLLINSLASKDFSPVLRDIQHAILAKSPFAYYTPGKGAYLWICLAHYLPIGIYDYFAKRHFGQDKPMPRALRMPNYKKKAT
Description: Inhibition of 17β-HSD type 2 in MCF-7 cells stably expressing the isoenzyme (HPLC, tritium labeled estradiol). The following applies: 2 nM estradiol, read-out: % Inhibition of the 17β-HSD enzyme type 2 (HSD2); for inhibition at 1 µM: MCF7, 1 μM compound; for inhibition at 10 µM: MCF7, 10 μM compound.
Excerpt: as §1, §2, §3, §4, §5

For test [3], the target named is T3, 17β-hydroxysteroid dehydrogenase type 3 (Homo sapiens, UniProt P37058).
T3 construct: expressed in transfected cells; host or cells: MCF-7
T3 sequence (P37058 1-310): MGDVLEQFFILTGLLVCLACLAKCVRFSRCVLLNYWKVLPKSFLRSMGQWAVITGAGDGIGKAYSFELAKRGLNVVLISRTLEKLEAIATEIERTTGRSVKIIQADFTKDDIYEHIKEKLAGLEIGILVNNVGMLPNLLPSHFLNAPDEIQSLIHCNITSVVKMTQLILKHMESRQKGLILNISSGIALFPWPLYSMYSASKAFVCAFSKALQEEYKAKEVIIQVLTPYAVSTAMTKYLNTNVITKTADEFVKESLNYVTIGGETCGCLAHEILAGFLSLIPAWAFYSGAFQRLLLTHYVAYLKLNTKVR
In words: Inhibition of 17β-HSD type 3 in MCF-7 cells stably expressing the isoenzyme (HPLC, tritium labeled androstenedione). To be noted: 2 nM androstenedione; for inhibition at 10 µM: MCF7, 10 μM compound; for inhibition at 10 µM / inhibition at 1 µM: read-out: % Inhibition of the 17β-HSD enzyme type 3 (HSD3); for inhibition at 1 µM: MCF7, 1 μM compound.
Excerpt: as §1, §2, §3, §4, §5

Regarding `O=CC1=C(Cl)c2sc3nc4n(c(=O)c3c2CC1)CCCCCC4` [Compound 4b, 4-Chloro-1,2,3,7,8,9, 10,11,12-octahydro[1]benzothieno[2′,3′:4,5]pyrimido-[1,2-a]-azocin-14-one-4-carboxyaldehyde], the “% Inhibition of the 17β-HSD enzyme type 1 (HSD1)” value was 31.2% in test [1] (1 μM compound) and 80.1% in test [1] (10 μM compound). Further, the inhibition at 1 µM turned out to be 36.9% in test [1] and 3.5% in test [2]. Also, the values for the inhibition at 10 µM in test [1], in test [2] and in test [3] were 82.1%, 1.5% and 42.1%, respectively. Besides, the “% Inhibition of the 17β-HSD enzyme type 3 (HSD3)” value was 5.3% and 14.3% in test [3] (1 μM compound); 43.9% in test [3] (10 μM compound).
Take `O=c1c2c3c(sc2nc2n1CCCCCC2)C(O)CCC3` (stereo not drawn) [Compound 13, 1,2,3,4,7,8,9,10,11,12-Decahydro-4-hydroxy-14H-[1]benzothieno[2′,3′:4,5]pyrimido[1,2-a]azocin-14-one]: the results for the inhibition at 1 µM in test [1], in test [2] and in test [3] were 5%, 1.7% and -2.2%, respectively. In addition, the figures for the inhibition at 10 µM in test [1], in test [2] and in test [3] were 20%, 18.6% and 11.7%, respectively.
As to `CCCCSC1=C(C=O)CCc2c1sc1nc3n(c(=O)c21)CCCCC3` [Compound 5d, 1,2,7,8,9,10,11,13-Octahydro-13-oxo-4-(butylthio)[1]benzothieno[2′,3′:4,5]-pyrimido-[1,2-a]azepine-3-carboxaldehyde], the values for the inhibition at 1 µM in test [1], in test [2] and in test [3] were 54.1%, 8.2% and 32.6%, respectively. The values for the inhibition at 10 µM in test [1], in test [2] and in test [3] were 100%, 15.1% and 72%, respectively.
Regarding `O=c1c2c3c(sc2nc2n1CCC(CO)CC2)CCCC3` (stereo not drawn) [Compound 35, 9-(Hydroxymethyl)-2,3,4,7,8,9,10,11-octahydro-[1]benzothieno[2′,3′: 4,5]pyrimido[1,2-a]azepin-13(1H)-one], the inhibition at 1 µM in test [1] was found to be 4.8%; in test [2], 15.8%; in test [3] it was 16.2%. The results for the inhibition at 10 µM in test [1], in test [2] and in test [3] were 22.4%, 27.7% and 23.4%, respectively.
`CCCSC1=C(C=O)CCc2c1sc1nc3n(c(=O)c21)CCC(C(=O)OCC)CC3` (stereo not drawn) [Compound 22, 3-Formyl-1,2,7,8,9,10, 11,13-octahydro-13-oxo-4-(propylthio)-[1]benzothieno [2′,3′: 4,5]pyrimido[1,2-a]azepine-9-carboxylic acid ethyl ester]: the inhibition at 1 µM in test [1] was determined as 24.3%; in test [2], 6.8%; in test [3], 25.5%. Besides, the inhibition at 10 µM in test [1] is 46.5%; in test [2], 16.1%; in test [3] it was 100%.
In the case of `COC(=O)C1CCc2nc3sc4c(c3c(=O)n2CC1)CCC(C=O)=C4OC` (stereo not drawn) [Compound 24, 3-Formyl-4-methoxy-1,2,7,8,9,10,11,13-octahydro-13-oxo-[1]benzothieno[2′,3′: 4,5]pyrimido [1,2-a]azepine-9-carboxylic acid methyl ester], the inhibition at 1 µM in test [1] worked out at 24.9%; in test [2], 3.1%; in test [3] it was 18%. Also, the inhibition at 10 µM was 32.3% in test [1], 19.3% in test [2] and 59.6% in test [3].
For the compound `CCc1nc2sc3c(c2c(=O)n1C)CCCC3` [Compound 2i, 5,6,7,8-Tetrahydro-2-ethyl-3-methyl[1]benzothieno[2,3-d]pyrimidin-4(3H)-one], the inhibition at 1 µM was determined as 12.7% in test [1], 20.6% in test [2] and 4.4% in test [3]. For the same compound, the inhibition at 10 µM in test [1] worked out at 18.5%; in test [2] it was 29.4%; in test [3], 9.9%.
As for `O=c1c2c3c(sc2nc2n1CCC2)CCCC3` [Compound 2f, 2,3,6,7,8,9-Hexahydro[1]benzothieno[2,3-d]pyrrolo[1,2-a]pyrimidin-10(1H)-one], the inhibition at 1 µM in test [1] stood at 19.9%; in test [2], 37%; in test [3] it was 48.2%. Further, the figures for the inhibition at 10 µM in test [1], in test [2] and in test [3] were 19.2%, 32.4% and 40.4%, respectively.
As for `O=C1CCc2c1sc1nc3n(c(=O)c21)CCCCC3` [Compound 3b, 1,2,6,7,8,9,10-heptahydrocyclopenta[4′,5′]thieno[2′,3′:4,5]pyrimido[1,2-a]-azepin-3,12-dione], the results for the inhibition at 1 µM in test [1], in test [2] and in test [3] were 13.5%, 14.1% and 0.3%, respectively. The inhibition at 10 µM in test [1] stood at 20.7%; in test [2], 25.4%; in test [3], 13.7%.
Turning to `CCOC(=O)C1CCc2nc3sc4c(c3c(=O)n2CC1)CCC(C=O)=C4Cl` (stereo not drawn) [Compound 21, 4-Chloro-3-formyl-1,2,7,8,9,10,11,13-octahydro-13-oxo-[1]benzothieno[2′,3′: 4,5]pyrimido[1,2-a]azepine-9-carboxylic acid ethyl ester], the figures for the inhibition at 1 µM in test [1], in test [2] and in test [3] were 10.9%, 13.1% and 20%, respectively. The inhibition at 10 µM in test [1] was 33.5%; in test [2], 32.9%; in test [3] it was 87.3%.
As for `CC1CCc2nc3sc4c(c3c(=O)n2CC1)CCC(C=O)=C4Cl` (stereo not drawn) [Compound 20, 4-Chloro-9-methyl-1,2,7,8,9,10,11,13-octahydro-13-oxo-[1]benzothieno[2′,3′: 4,5]pyrimido [1,2-a]azepine-3-carbaldehyde], the inhibition at 1 µM was found to be 10.4% in test [1], 11.2% in test [2] and 32% in test [3]. Also, the inhibition at 10 µM was 45.7% in test [1], 6.2% in test [2] and 100% in test [3].
For the compound `O=C1CCCc2c1sc1nc3n(c(=O)c21)CCCC3` [Compound 3e], the inhibition at 1 µM in test [1] is 6.3%; in test [2] it was 25.7%; in test [3], 38.5%. The inhibition at 10 µM in test [1] came to 35.8%; in test [2], 16.3%; in test [3] it was 47.4%.
As for `O=c1c2c3c(sc2nc2n1CCCCC2)CCCCC3` [Compound 2c, 1,2,3,4,5,8,9,10,11,12-Decahydro-14H-cyclohepta[4′,5′]thieno[2′,3′:4,5]pyrimido-[1,2-a]azepin-14-one], the inhibition at 1 µM in test [1] was 22.7%; in test [2], 8.9%; in test [3], 50.8%. Also, the values for the inhibition at 10 µM in test [1], in test [2] and in test [3] were 39.8%, 13.5% and 47%, respectively.
